From patent US10844013B2, “Phenyl amino piperidine mTORC inhibitors and uses thereof” (Navitor Pharmaceuticals, Inc., priority 2016, dated 2020)
Structures can show the parent of a compound that is named as a salt. Where two headings read alike, the source gives them in different places.

Tests used:
[1] = test system: pAKT (p-Akt 1/2/3 (Ser473)) in MCF-7 cells; experiment: AlphaLISA Ultra pAKT assay; assay type: cell-based
Procedure, shortened: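 AlphaLISA read-out (2 h acceptor-bead, then 2 h donor-bead incubation) on thawed lysates of MCF-7 cells exposed to compounds for 2 h in 0.5% DMSO. Cells had been plated 20-24 h and given fresh medium 2 h before dosing.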

[2] = test system: pS6K1 (p-p70 S6 Kinase (Thr389)) in MCF-7 cells; experiment: AlphaLISA Ultra pS6K1 assay; assay type: cell-based; settings: 2 hours compound incubation
Procedure, shortened: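 MCF-7 cells seeded 20–24 h, medium refreshed 2 h, then treated 2 h with compound (0.5% DMSO final). Lysates probed for Thr389-phosphorylated p70 S6K by AlphaLISA Ultra, 2 h acceptor then 2 h donor bead incubation, read on a multimode reader.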

[3] = Homo sapiens, MCF7, 2 hours compound incubation

Structure (SMILES) | IC50 [1, 3] [nM] | IC50 ([2]; Homo sapiens, MCF7, 2 h) [nM] | IC50 ([1]; 2 hours compound incubation, read-out: pAKT in MCF7: IC50) [nM] | IC50 ([2]; read-out: pS6K1 in MCF7: IC50) [nM]
Cc1cc(C)c(C(=O)N2CCN(c3ccc(F)cn3)[C@H](CO)C2)c(C)c1NC1CCN(c2ccc(F)cn2)CC1 [I-146, [(3S)-4-(5-Fluoro-2-pyridyl)-3-(hydroxymethyl)piperazin-1-yl]-[3-[[1-(5-fluoro-2-pyridyl)-4-piperidyl]amino]-2,4,6-trimethyl-phenyl]methanone] | 10 to 1000 | 10 to 1000 |  | 
Cc1cc(C)c(C(=O)N2CCN(c3ccccn3)[C@H](CO)C2)c(C)c1NC1CCN(c2ccc(F)cn2)CC1 [I-147, [(2S)-4-(3-{[1-(5-Fluoropyridin-2-yl)piperidin-4-yl]amino}-2,4,6-trimethylbenzoyl)-1-(pyridin-2-yl)piperazin-2-yl]methanol] | > 10000 | 10 to 1000 |  | 
Cc1cc(C)c(C(=O)N2CCN(c3ccc(F)cn3)[C@H](CO)C2)c(C)c1NC1CCN(c2cnccn2)CC1 [I-148, [(3S)-4-(5-Fluoro-2-pyridyl)-3-(hydroxymethyl)piperazin-1-yl]-[2,4,6-trimethyl-3-[(1-pyrazin-2-yl-4-piperidyl)amino]phenyl]methanone] | > 10000 | 10 to 1000 |  | 
Cc1cc(C)c(C(=O)N2CCN(c3ccccn3)[C@H](CO)C2)c(C)c1NC1CCN(c2cnccn2)CC1 [I-149, [(2S)-1-(pyridin-2-yl)-4-(2,4,6-trimethyl-3-{[1-(pyrazin-2-yl)piperidin-4-yl]amino}benzoyl)piperazin-2-yl]MeOH] | > 10000 | 10 to 1000 |  | 
Cc1cc(C)c(C(=O)N2CCN(c3ccccc3)[C@H](C(N)=O)C2)c(C)c1NC1CCN(c2cnccn2)CC1 [I-150, (2S)-1-phenyl-4-(2,4,6-trimethyl-3-{[1-(pyrazin-2-yl)piperidin-4-yl]amino}benzoyl) piperazine-2-carboxamide] | > 10000 | 10 to 1000 |  | 
Cc1cc(C)c(C(=O)N2CCN(c3ccc(F)cn3)[C@H](CO)C2)c(C)c1NC1CCN(c2ncccn2)CC1 [I-151, [(2S)-1-(5-Fluoropyridin-2-yl)-4-(2,4,6-trimethyl-3-{[1-(pyrimidin-2-yl)piperidin-4-yl]amino}benzoyl)piperazin-2-yl]methanol] | > 10000 | 10 to 1000 |  | 
Cc1cc(C)c(C(=O)N2CCN(c3ccccc3)[C@@H](C(N)=O)C2)c(C)c1NC1CCN(c2cnccn2)CC1 [I-152, (2R)-1-phenyl-4-(2,4,6-trimethyl-3-{[1-(pyrazin-2-yl)piperidin-4-yl]amino}benzoyl) piperazine-2-carboxamide] | > 10000 | > 10000 |  | 
Cc1nc(C)c(C(=O)N2CCN(c3ccccc3)[C@H](CO)C2)c(C)c1NC1CCN(c2c(F)cccc2C#N)CC1 [I-153, 3-fluoro-2-[4-({5-[(3S)-3-(hydroxy-methyl)-4-phenyl-piperazine-1-carbonyl]-2,4,6-trimethyl-pyridin-3-yl}amino)piperidin-1-yl] benzonitrile] | > 10000 | 10 to 1000 |  | 
Cc1nc(C)c(C(=O)N2CCN(c3ccccc3)[C@H](CO)C2)c(C)c1NC1CCN(c2ccc(F)cc2C#N)CC1 [I-154, 5-fluoro-2-[4-({5-[(3S)-3-(hydroxy-methyl)-4-phenyl-piperazine-1-carbonyl]-2,4,6-trimethyl-pyridin-3-yl}amino)piperidin-1-yl] benzonitrile] | > 10000 | 1000 to 3000 |  | 
Cc1nc(C)c(C(=O)N2CCN(c3ccccc3)[C@H](CO)C2)c(C)c1NC1CCN(c2ccccn2)CC1 [I-155, [(2S)-1-phenyl-4-(2,4,6-trimethyl-5-{[1-(pyridin-2-yl)piperidin-4-yl]amino}pyridine-3-carbonyl)piperazin-2-yl]MeOH] | > 10000 | 1000 to 3000 |  | 
Cc1nc(C)c(C(=O)N2CCN(c3ccccc3)[C@H](CO)C2)c(C)c1NC1CCN(c2ncccc2Cl)CC1 [I-165, [(2S)-4-(5-{[1-(3-chloropyridin-2-yl)piperidin-4-yl]amino}-2,4,6-trimethyl-pyridine-3-carbonyl)-1-phenyl-piperazin-2-yl]MeOH] |  |  | > 10000 | 10 to 1000

Further lines, with some results ahead:

IC50 [1, 3] [nM] | IC50 ([2]; Homo sapiens, MCF7, 2 h) [nM] | Structure (SMILES) | IC50 ([1]; 2 hours compound incubation, read-out: pAKT in MCF7: IC50) [nM] | IC50 ([2]; read-out: pS6K1 in MCF7: IC50) [nM]
> 10000 | 10 to 1000 | Cc1cc(C)c(C(=O)N2CCN(c3ccccn3)[C@H](CO)C2)c(C)c1NC1CCN(c2ccccn2)CC1 [I-156, [(2S)-1-(pyridin-2-yl)-4-(2,4,6-trimethyl-3-{[1-(pyridin-2-yl)piperidin-4-yl]amino}benzoyl)piperazin-2-yl]MeOH] |  | 
> 10000 | 10 to 1000 | Cc1cc(C)c(C(=O)N2CCN(c3cccnn3)[C@H](CO)C2)c(C)c1NC1CCN(c2ccccn2)CC1 [I-157, [(2S)-1-(pyridazin-3-yl)-4-(2,4,6-trimethyl-3-{[1-(pyridin-2-yl)piperidin-4-yl]amino}benzoyl)piperazin-2-yl]MeOH] |  | 
> 10000 | 10 to 1000 | Cc1cc(C)c(C(=O)N2CCN(c3ccccc3)[C@H](CO)C2)c(C)c1NC1CCN(c2cccnn2)CC1 [I-158, [(2S)-1-phenyl-4-(2,4,6-trimethyl-3-{[1-(pyridazin-3-yl)piperidin-4-yl]amino}benzoyl)piperazin-2-yl]MeOH] |  | 
> 10000 | 1000 to 3000 | Cc1cc(C)c(C(=O)N2CCN(c3cccnn3)[C@H](CO)C2)c(C)c1NC1CCN(c2cccnn2)CC1 [I-160, [(2S)-1-(pyridazin-3-yl)-4-(2,4,6-trimethyl-3-{[1-(pyridazin-3-yl)piperidin-4-yl]amino}benzoyl)piperazin-2-yl]MeOH] |  | 
> 10000 | 10 to 1000 | Cc1cc(C)c(C(=O)N2CCN(c3ccc(F)cn3)[C@H](CO)C2)c(C)c1NC1CCN(c2cccnn2)CC1 [I-161, [(2S)-1-(5-fluoropyridin-2-yl)-4-(2,4,6-trimethyl-3-{[1-(pyridazin-3-yl)piperidin-4-yl]amino}benzoyl)piperazin-2-yl]MeOH] |  | 
> 10000 | 10 to 1000 | Cc1cc(C)c(C(=O)N2CCN(c3ccc(F)cc3)C(C(N)=O)C2)c(C)c1NC1CCN(c2cccnn2)CC1 (stereo not drawn) [I-162, 1-(4-fluorophenyl)-4-(2,4,6-trimethyl-3-{[1-(pyridazin-3-yl)piperidin-4-yl]amino}benzoyl) piperazine-2-carboxamide] |  | 
> 10000 | 10 to 1000 | Cc1cc(C)c(C(=O)N2CCN(c3ccccc3)[C@H](C(N)=O)C2)c(C)c1NC1CCN(c2cccnn2)CC1 [I-164, (2S)-1-Phenyl-4-(2,4,6-trimethyl-3-{[1-(pyridazin-3-yl)piperidin-4-yl]amino}benzoyl)piperazine-2-carboxamide] |  | 
> 10000 | 1000 to 3000 | Cc1cc(C)c(C(=O)N2CCN(c3ccccc3S(N)(=O)=O)CC2)cc1N[C@H]1CCN(c2ccccc2C#N)C[C@H]1C [I-169, 2-(4-(5-(((3R,4S)-1-(2-cyanophenyl)-3-methylpiperidin-4-yl)amino)-2,4-dimethylbenzoyl)piperazin-1-yl)benzenesulfonamide] |  | 
> 10000 | 10 to 1000 | Cc1cc(C)c(C(=O)N2CCN(c3ccccc3S(N)(=O)=O)CC2)cc1N[C@@H]1CCN(c2ccccc2C#N)C[C@H]1C [I-170, 2-(4-(5-(((3R,4R)-1-(2-cyanophenyl)-3-methylpiperidin-4-yl)amino)-2,4-dimethylbenzoyl)piperazin-1-yl)benzenesulfonamide] |  | 
> 10000 | 3000 to 5000 | Cc1cc(C(F)(F)F)c(NC2CCN(c3ccccc3C#N)CC2)cc1C(=O)N1CCN(c2cccnc2S(N)(=O)=O)CC1 [I-172, 3-(4-(5-((1-(2-cyanophenyl)piperidin-4-yl)amino)-2-methyl-4-(trifluoromethyl)benzoyl)piperazin-1-yl)pyridine-2-sulfonamide] |  | 
> 10000 | 10 to 1000 | Cc1cc(C)c(C(=O)N2CCN(c3c(F)cc(F)cc3S(N)(=O)=O)CC2)cc1NC1CCN(c2ccccc2C#N)CC1 [I-174, 2-(4-(5-((1-(2-cyanophenyl)piperidin-4-yl)amino)-2,4-dimethylbenzoyl)piperazin-1-yl)-3,5-difluorobenzenesulfonamide] |  | 
> 10000 | 10 to 1000 | Cc1cc(C)c(C(=O)N2CCN(c3cccnc3[S@](C)(=N)=O)CC2)c(C)c1NC1CCN(c2ncccc2Cl)CC1 [I-175, (R)-(3-(4-(3-((1-(3-chloropyridin-2-yl)piperidin-4-yl)amino)-2,4,6-trimethylbenzoyl)piperazin-1-yl)pyridin-2-yl)(imino)(methyl)-λ^6-sulfanone Trifluoroacetate Salt] |  | 
> 10000 | 1000 to 3000 | Cc1cc(C)c(C(=O)N2CCN(c3nnco3)[C@H](CO)C2)cc1NC1CCN(c2ccccc2C#N)CC1 [I-177, (S)-2-(4-((5-(3-(hydroxymethyl)-4-(1,3,4-oxadiazol-2-yl)piperazine-1-carbonyl)-2,4-dimethylphenyl)amino)piperidin-1-yl)benzonitrile] |  | 
> 10000 | 10 to 1000 | Cc1cc(C)c(C(=O)N2CCN(c3ncccc3S(N)(=O)=O)CC2)c(C)c1N[C@H]1CCN(c2ccccc2C#N)C[C@H]1C [I-178, 2-(4-(3-(((3R,4S)-1-(2-cyanophenyl)-3-methylpiperidin-4-yl)amino)-2,4,6-trimethylbenzoyl)piperazin-1-yl)pyridine-3-sulfonamide] |  | 
> 10000 | 10 to 1000 | Cc1cc(C)c(C(=O)N2CCN(c3ncccc3S(N)(=O)=O)CC2)c(C)c1N[C@@H]1CCN(c2ccccc2C#N)C[C@@H]1C [I-179, 2-(4-(3-(((3S,4R)-1-(2-cyanophenyl)-3-methylpiperidin-4-yl)amino)-2,4,6-trimethylbenzoyl)piperazin-1-yl)pyridine-3-sulfonamide] |  | 
> 10000 | 10 to 1000 | Cc1cc(C)c(C(=O)N2CCN(c3ncccc3S(N)(=O)=O)CC2)c(C)c1N[C@@H]1CCN(c2ccccc2C#N)C[C@H]1C [I-180, 2-(4-(3-(((3R,4R)-1-(2-cyanophenyl)-3-methylpiperidin-4-yl)amino)-2,4,6-trimethylbenzoyl)piperazin-1-yl)pyridine-3-sulfonamide] |  | 
